Data on 11 compounds can be found in patent publication US8999973B2, “Thieno[3,2-d]pyrimidine derivatives having inhibitory activity on protein kinases” (Hanmi Science Co., Ltd, priority 2010, dated 2015).

One assay addresses T1, Bcr-Abl^T315I (Homo sapiens, UniProt P00519, T315I).
T1 construct: purchased Millipore
T1 sequence (P00519 242-493 T315I limits assumed): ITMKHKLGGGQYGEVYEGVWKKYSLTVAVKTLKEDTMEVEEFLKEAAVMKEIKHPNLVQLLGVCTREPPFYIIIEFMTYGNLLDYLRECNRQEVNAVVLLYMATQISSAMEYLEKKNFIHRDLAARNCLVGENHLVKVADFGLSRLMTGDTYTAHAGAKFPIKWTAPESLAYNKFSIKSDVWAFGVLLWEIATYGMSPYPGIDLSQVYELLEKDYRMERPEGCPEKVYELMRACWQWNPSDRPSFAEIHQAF
Briefly: Kinase activation assay (IC50), fluorescence polarization tyrosine kinase assay kit. Type of assay: biochemical. The note with it: T315I mutation kinase domain (Millipore), Poly (Glu, Tyr) 4:1 substrate, FP readout. Here is the method:
(§1) Test 1: Kinase Activation Assay (IC50)
(§2) A kinase domain (Millipore) comprising the entire cytoplasmic sequences of Bcr-Abl^wt and Bcr-Abl^T315I mutation kinases and a tyrosine kinase assay kit (Panvera, P2837) were used to measure an inhibitory activation on Bcr-abl. Other kinases such as FGFR, Flt, KDR, PDGFR, Fms, Kit, Raf, Tie2, Src, and Ret were also measured by the same method. In order to prepare a sample, the each compound obtained in Examples 1 to 128 was diluted 10 times with a kinase buffer to a concentration of 10˜0.0001 μM.
(§3) The each kinase was diluted with a kinase buffer to a concentration of 30˜300 ng/assay by using the each Kd value. The kinase buffer consisted of 100 mM HEPES (PH 7.4), 25 mM MgCl2, 10 mM MnCl2, and 250 μM Na3VO4, being kept refrigerated after filtered.
(§4) The test was conducted in 96 well polystyrene round bottom plates. First, 10 μL of the diluted sample was combined with 10 μL of the enzyme solution at room temperature for 10 minutes using a shaker. 10 μL of Poly (Glu, Tyr) 4:1 (Sigma) matrix solution in an appropriate concentration and 10 μL of ATP solution (5˜300 μM) were added to the sample and subjected to a reaction at room temperature for 60 minutes in a shaker. After 60 minutes, an EDTA solution was added thereto to complete the kinase reaction and the reaction mixture was left in a shaker for 5 minutes at room temperature. A tracer, an antibody, and a fluorescence polarization (FP) diluted reaction solution were mixed at a ratio of 1:1:3 to prepare a detecting solution, 50 μL of which was added to the each sample and subjected to a reaction at room temperature for 30 minutes in a shaker. As fluorescing, light was blocked out and the FP value was measured using a FP instrument (excitation wavelength: 485 nm, and emission wavelength: 530 nm).
(§5) And the inhibition on kinase reaction was calculated for the sample in the range of 0˜100% as compared to the control group, and the concentration on x-axis at 50% inhibition was obtained as an inhibitory concentration (IC50) value.
(§6) 50% inhibitory concentration (IC50) Y=bottom+(top−bottom)/(1+10exp(X−log IC50)
A general note: Fluorescence polarisation rises when a labelled molecule tumbles more slowly, as on binding a larger partner.

Another assay has as its target T2, Bcr-Abl^wt (Homo sapiens, UniProt P00519).
T2 construct: purchased Millipore
T2 sequence (P00519 242-493 limits assumed): T1 sequence (P00519 242-493 T315I limits assumed) with I74T
The assay is described as above. Type of assay: biochemical. The note with it: kinase domain (Millipore), Poly (Glu, Tyr) 4:1 substrate, FP readout. On the procedure: as §1, §2, §3, §4, §5, §6

Each structure is given as a SMILES string. Where a chain is given by its changes, count along the chain named.

A word on the IC50: it is the concentration needed to halve the response being measured.

On to `CCN1CCN(c2cc(NC(=O)c3ccc(C)c(/C=C/c4csc5c(N)ncnc45)c3)cc(C(F)(F)F)c2)CC1` [Example 3, (E)-3-(2-(4-aminothieno[3,2-d]pyrimidine-7-yl)vinyl)-N-(3-(4-ethylpiperazine-1-yl)-5-(trifluoromethyl)phenyl)-4-methylbenzamide], for which the half-inhibitory concentration (IC50) was 1000 to 10000 nM at Bcr-Abl^T315I and 1 to 100 nM against Bcr-Abl^wt.

In the case of `Cc1ccc(NC(=O)c2cccc(C(F)(F)F)c2)cc1/C=C/c1csc2c(N)ncnc12` [Example 6, (E)-N-(3-(2-(4-aminothieno[3,2-d]pyrimidine-7-yl)vinyl)-4-methylphenyl)-3-(trifluoromethyl)benzamide], the figures for the half-inhibitory concentration (IC50) at Bcr-Abl^T315I and against Bcr-Abl^wt were 1000 to 10000 nM and 100 to 1000 nM, respectively.

With `CCN1CCN(Cc2ccc(C(=O)Nc3ccc(C)c(/C=C/c4csc5c(N)ncnc45)c3)cc2C(F)(F)F)CC1` [Example 7, (E)-N-(3-(2-(4-aminothieno[3,2-d]pyrimidine-7-yl)vinyl)-4-methylphenyl)-4-((4-ethylpiperazin-1-yl)methyl)-3-(trifluoromethyl)benzamide], the concentration for half-maximal inhibition (IC50) against Bcr-Abl^T315I lay within 100 to 1000 nM; at Bcr-Abl^wt, 1 to 100 nM.

For the compound `Cc1ccc(C(=O)Nc2cccc(C(F)(F)F)c2)cc1NC(=O)c1csc2c(N)ncnc12` [Example 8, 4-amino-N-(2-methyl-5-(3-(trifluoromethyl)phenylcarbamoyl)phenyl)thieno[3,2-d]pyrimidine-7-carboxamide], the 50% inhibitory concentration (IC50) at Bcr-Abl^T315I and at Bcr-Abl^wt was 1 to 100 nM each time.

Consider `COc1cc(NC(=O)c2ccc(C)c(NC(=O)c3csc4c(N)ncnc34)c2)cc(OC)c1` [Example 12, 4-amino-N-(5-(3,5-dimethoxyphenylcarbamoyl)-2-methylphenyl)thieno[3,2-d]pyrimidine-7-carboxamide], for which the half-maximal inhibitory concentration (IC50) fell in the range of 100 to 1000 nM against Bcr-Abl^T315I and 1 to 100 nM against Bcr-Abl^wt.

For `COc1cc(Nc2ncnc3c(C(=O)Nc4cc(C(=O)Nc5cccc(C(F)(F)F)c5)ccc4C)csc23)cc(OC)c1OC` [Example 14, N-(2-methyl-5-(3-(trifluoromethyl)phenylcarbamoyl)phenyl)-4-(3,4,5-trimethoxyphenylamino)thieno[3,2-d]pyrimidine-7-carboxamide], the IC50 was 1000 to 10000 nM on Bcr-Abl^T315I and 100 to 1000 nM at Bcr-Abl^wt.

Consider `Cc1ccc(C(=O)Nc2cccc(C(F)(F)F)c2)cc1NC(=O)c1csc2c(NC(C)C)ncnc12` [Example 17, 4-(isopropylamino)-N-(2-methyl-5-(3-(trifluoromethyl)phenylcarbamoyl)phenyl)thieno[3,2-d]pyrimidine-7-carboxamide], for which the IC50 was in the range of 1000 to 10000 nM against Bcr-Abl^T315I and 1 to 100 nM against Bcr-Abl^wt.

Regarding `CC(=O)OCc1ccc(NC(=O)c2ccc(C)c(NC(=O)c3csc4c(NC5CC5)ncnc34)c2)cc1C(F)(F)F` [Example 23, 4-(3-(4-(cyclopropylamino)thieno[3,2-d]pyrimidine-7-carboxamido)-4-methylbenzamido)-2-(trifluoromethyl)benzyl acetate], the IC50 against Bcr-Abl^T315I lay within 1000 to 10000 nM; against Bcr-Abl^wt, 1 to 100 nM.

As for `Cc1ccc(C(=O)Nc2ccc(CO)c(C(F)(F)F)c2)cc1NC(=O)c1csc2c(NC3CC3)ncnc12` [Example 24, 4-(cyclopropylamino)-N-(5-(4-(hydroxymethyl)-3-(trifluoromethyl)phenylcarbamoyl)-2-methylphenyl)thieno[3,2-d]pyrimidine-7-carboxamide], the concentration for half-maximal inhibition (IC50) against Bcr-Abl^T315I and against Bcr-Abl^wt was 1 to 100 nM in each case.

`Cc1ccc(C(=O)Nc2ccc(N3CCOCC3)nc2)cc1NC(=O)c1csc2c(NC3CC3)ncnc12` [Example 29, 4-(cyclopropylamino)-N-(2-methyl-5-(6-morpholinopyridine-3-ylcarbamoyl)phenyl)thieno[3,2-d]pyrimidine-7-carboxamide]: the 50% inhibitory concentration (IC50) against Bcr-Abl^T315I was 1000 to 10000 nM; on Bcr-Abl^wt it was 1 to 100 nM.

For `CCN1CCN(c2ccc(NC(=O)c3ccc(C)c(NC(=O)c4csc5c(NC6CC6)ncnc45)c3)cn2)CC1` [Example 30, 4-(cyclopropylamino)-N-(5-(6-(4-ethylpiperazine-1-yl)pyridine-3-ylcarbamoyl)-2-methylphenyl)thieno[3,2-d]pyrimidine-7-carboxamide], the half-maximal inhibitory concentration (IC50) on Bcr-Abl^T315I and against Bcr-Abl^wt was 1000 to 10000 nM throughout.
